# Laboratory results reported in PubChem BioAssay AID1322 (NMMLSC, 2008).
# Activity calls are given as the source filed them. The rule behind the calls is not given here.
# Molecular target: Bcl-2-like protein 1 (Homo sapiens) (UniProt Q07817)
# Assay: Bim-Bcl-XL interaction inhibitors, potency, dose response, biochemical, multiplexed, bead flow cytometry, human Bcl-XL (AID 1322); for inhibition: test concentration not given here
# Details: Bead-based flow cytometry, Bim peptide-Bcl-XL binding, MCF
# Bcl-2-like protein 1 (Homo sapiens), sequence (Q07817 whole entry, looked up): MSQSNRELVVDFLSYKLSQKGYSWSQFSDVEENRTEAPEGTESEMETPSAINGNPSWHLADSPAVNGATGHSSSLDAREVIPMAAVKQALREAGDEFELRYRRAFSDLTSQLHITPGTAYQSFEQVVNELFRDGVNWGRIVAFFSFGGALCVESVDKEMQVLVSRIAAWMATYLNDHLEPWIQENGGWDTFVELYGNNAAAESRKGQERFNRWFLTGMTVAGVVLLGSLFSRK
SMILES,outcome,EC50
O=C1CCc2cc(S(=O)(=O)NCCCC(=O)N3CCN(Cc4ccc5c(c4)OCO5)CC3)ccc2N1,inactive,
COc1cccc(/C=N/Nc2nn3cnnc3c3ccccc23)c1,,inactive
Cn1cc(CN2C[C@]3(C)C[C@H]2CC(C)(C)C3)c(-c2ccc3c(c2)OCCO3)n1,inactive,
O=C1NC(=O)C(=Cc2ccc(-c3cc(Cl)ccc3[N+](=O)[O-])o2)C(=O)N1,inactive,
Cc1cc(C)n(CC(=O)N/N=C/c2cccc([N+](=O)[O-])c2)n1,inactive,
O=C(CCCN1C(=O)c2cccc3cccc(c23)C1=O)N1CCN(c2ccccn2)CC1,inactive,
CN=C(NC1CCCCC1)c1ccc(Cl)cc1,inactive,
CCC(=O)OCCNc1cc(Sc2nccn2C)c2nonc2c1[N+](=O)[O-],inactive,

# Same assay, conditions: Bead-based flow cytometry, Bim peptide-Bcl-XL binding, MCF
row,SMILES,inhibition
1,CCOC(=O)C1CCN(C(=O)Nc2ccc3nc(-c4ccco4)c(-c4ccco4)nc3c2)CC1,inactive
2,CCN(CC)S(=O)(=O)c1cccc(C(=O)N/N=C/c2ccc(O)c(O)c2O)c1,inactive
3,COc1ccc(N2C(=O)C(Cl)=C(Oc3cccc(OC)c3)C2=O)cc1,inactive
4,Cc1ccc(C)c(N2CCN(C(=S)Nc3ccc4nc(N5CCN(C)CC5)cc(C)c4c3)CC2)c1,inactive
5,CN(C)S(=O)(=O)N(CC(=O)Nc1ccccc1C(F)(F)F)c1ccccc1,inactive
6,CCOC(=O)c1nc(Nc2ccc(Nc3ccccc3)cc2)c2ccccc2n1,inactive
7,Cc1ccc(-n2[nH]c(C)c(/C=N/Nc3ccc([N+](=O)[O-])cc3[N+](=O)[O-])c2=O)cc1C,inactive
8,CCCn1c(SCC(=O)Nc2ccccc2-c2ccccc2)nnc1-c1ccoc1C,inactive
9,CCCCN(C(=O)CCC(=O)Nc1cc(C)on1)C(C(=O)NC(C)(C)C)c1cccc(OC)c1OC (stereo unspecified),inactive
10,CCN(CC)c1ccc(-c2nn3c(-c4ccccc4OC)nnc3s2)cc1,inactive
11,CCOc1ccc(C(=O)Nc2nnn(CC)n2)cc1,inactive
12,COc1ccc(NS(=O)(=O)c2cc(NC(=O)c3ccc(C)o3)ccc2N2CCCCC2)cc1,inactive
13,COC(=O)CCC(=O)Nc1sc(C)c(C)c1C(N)=O,inactive
14,c1ccc(C2=Nc3cccc4cccc(c34)N2)cc1,inactive
15,O=C1NC(=S)S/C1=C/c1ccc(N2CCOCC2)o1,inactive
16,CN=c1scc(C)n1/N=C/c1ccc(O)c(O)c1O,inactive
17,CC(=O)c1ccc2c(c1)C1C=CCC1C(c1ccncc1)N2 (stereo unspecified),inactive

row,SMILES,inhibition
1,CCN1CCN(CC(=O)c2c[nH]c3ccc(C)cc23)CC1,inactive
2,Cc1nnc(Sc2cc(NCCO)c([N+](=O)[O-])c3nonc23)s1,inactive
3,O=C(c1cc(=O)c2ccccc2o1)N1CCN(c2ccccc2F)CC1,inactive
4,COCCNC(=O)CN1CCC(NC(=O)Nc2ccccc2)CC1,inactive
5,COC(=O)c1sc2nc[nH]c(=O)c2c1C,inactive
6,Cc1ccc(N=C2NC(=O)/C(=C/C=C/c3ccco3)S2)cc1,inactive
7,O=c1[nH]c2ccc(N=Cc3c(O)ccc4cc(Br)ccc34)cc2[nH]1,inactive
8,Cc1cc2nn(-c3cccc4ccccc34)nc2cc1N,inactive
9,O=C(Cn1cncc1-c1ccc([N+](=O)[O-])cc1)Nc1ccccc1F,inactive
10,O=C(NC1=C(Nc2ccc(F)cc2)C(=O)c2ccccc2C1=O)c1ccc(Cl)cc1,inactive
11,O=C(COC(=O)c1ccccn1)NC1CCCCC1,inactive
12,S=C(Nc1ccccc1)N1CCn2cccc2C1c1cccnc1 (stereo unspecified),inactive
13,O=C(c1cc2ccccc2oc1=O)N(c1ccccc1)C1C=CS(=O)(=O)C1 (stereo unspecified),inactive
14,Cc1ccc(CNc2ccc3c(c2)OCO3)c(C)c1,inactive
15,S=C(NCCc1ccccc1)NCCc1ccccc1,inactive
16,Cc1csc(Nc2ccccc2C(F)(F)F)n1,inactive
